Laboratory results as given in patent publication US8729098B2, “Tertiary 8-hydroxyquinoline-7-carboxamide derivatives and uses thereof” (Polichem SA, priority 2009, dated 2014).
In brackets after ≈: the same amount, converted by molar mass.

Experiments:
[1] = test system: Candida Glabrata (ATCC 90030); test: Broth micro-dilution antifungal susceptibility test (MIC); format: cell-based; conditions: Nakaseomyces glabratus, ATCC90030; RPMI 1640 pH 7, 48 h at 35° C.; geometric mean of two experiments
Protocol: (§1) Trichophyton Rubrum (ATCC 28188, PBI International), Trichophyton Mentagrophytes (ATCC 9533, PBI International), Aspergillus Niger (ATCC 16404, PBI International), Scopulariopsis Brevicaulis (ATCC 36840, DSMZ), Candida Albicans (ATCC 90028, PBI International), Candida Glabrata (ATCC 90030, DSMZ).
(§2) Strains were prepared from freeze-dried ampoules or freeze-dried pellets. An isolation of the suspensions was made on Potato Dextrose Agar (PDA) to test the strains purity. A strains' massive growth was then made streaking microbial suspensions on PDA plates.
(§3) Incubation was at 30° C. for 48-72 hours (Candida yeasts) and for 7-10 days (filamentous fungi).
(§4) The yeasts' colonies and the filamentous fungi's conidia were harvested with 3-5 mL of RPMI 1640+50% glycerol and the aliquots frozen at −80° C.
(§5) Compounds' minimal inhibition concentration (MIC) was determined through broth micro-dilution susceptibility test using a method developed in agreement with the National Committee for Clinical Laboratory Standards (NCCLS) (National Committee for Clinical Laboratory Standards. Reference Method for Broth Dilution Antifungal Susceptibility Testing of Yeasts; Approved standard-Second Edition M27-A2. 2002; Vol. 22, No. 15) (National Committee for Clinical Laboratory Standards. Reference Method for Broth Dilution Antifungal Susceptibility Testing of Filamentous Fungi; Approved standard M38-A. 2002; Vol. 22, No. 16).
(§6) Assays were carried out in RPMI 1640 with L-glutamine medium buffered to pH 7 with 0.165M 3-(N-morpholino)propanesulfonic acid (MOPS) and 10M NaOH and supplemented with 18 g glucose/litre. The tests were performed using 96 well sterile plates (inoculum size of 1×10^5 CFU/mL). Compounds stock solutions were prepared at 12.8 mg/mL in 100% DMSO. A series of twofold dilutions were prepared in plate using RPMI 1640. Final concentrations ranged from 0.125 to 128 μg/mL at 1% DMSO.
(§7) MIC is defined as the lowest concentration of antifungal agent which prevents any visible growth and was determined after 48 h of incubation for yeasts (35° C.) and after five days of incubation for filamentous fungi (35° C.).

[2] = test system: Aspergillus Niger (ATCC 16404); test: as above; format: cell-based; conditions: ATCC16404, 120 h, RPMI 1640 pH 7, five days at 35° C., geometric mean of two experiments
Protocol: as §1, §2, §3, §4, §5, §6, §7

[3] = test system: Trichophyton Rubrum (ATCC 28188); test: as above; format: cell-based; conditions: ATCC28188, 120 h, RPMI 1640 pH 7, five days at 35° C., geometric mean of two experiments, read-out: MIC Trycophyton Rubrum ATCC 28188
Protocol: as §1, §2, §3, §4, §5, §6, §7

[4] = test system: Candida Albicans (ATCC 90028); test: as above; format: cell-based; conditions: ATCC90028, RPMI 1640 pH 7, 48 h at 35° C., geometric mean of two experiments
Protocol: as §1, §2, §3, §4, §5, §6, §7

[5] = test system: Scopulariopsis Brevicaulis (ATCC 36840); test: as above; format: cell-based; conditions: ATCC36840, 120 h, RPMI 1640 pH 7, five days at 35° C., geometric mean of two experiments
Protocol: as §1, §2, §3, §4, §5, §6, §7

[6] = test system: Trichophyton Mentagrophytes (ATCC 9533); test: as above; format: cell-based; conditions: ATCC9533, 120 h, RPMI 1640 pH 7, five days at 35° C., geometric mean of two experiments, read-out: MIC Tricophyton Mentagrophytes ATCC 9533
Protocol: as §1, §2, §3, §4, §5, §6, §7

invasive aspergillosis = conditions: daily administered at 10 mg/kg; cited from earlier work

With `CN(C(=O)c1ccc2cccnc2c1O)c1ccc(Br)cc1` [Example 29, N-(4-Bromophenyl)-8-hydroxy-N-methylquinoline-7-carboxamide] the MIC [1] was 4 µg/mL (≈ 11.2 µM), the MIC [2] was 0.13 µg/mL (≈ 0.364 µM) and the MIC [3] was 2 µg/mL (≈ 5.6 µM). It also gave an MIC [4] of 4 µg/mL (≈ 11.2 µM), an MIC [5] of 2 µg/mL (≈ 5.6 µM) and an MIC [6] of 1 µg/mL (≈ 2.8 µM).

In the case of `O=C(c1ccc2cccnc2c1O)N1CCCc2ccc(F)cc21` [Example 61, (7-Fluoro-3,4-dihydroquinolin-1(2H)-yl)(8-hydroxyquinolin-7-yl)methanone], the MIC [1] is reported as 2 µg/mL (≈ 6.2 µM), the MIC [2] is reported as 0.25 µg/mL (≈ 0.776 µM) and the MIC [3] is reported as 1 µg/mL (≈ 3.1 µM). It also gave an MIC [4] of 2 µg/mL (≈ 6.2 µM), an MIC [5] of 0.71 µg/mL (≈ 2.2 µM) and an MIC [6] of 2 µg/mL (≈ 6.2 µM).

Work on `O=C(c1ccc2cccnc2c1O)N1C2CCCCC2C2CCCCC21` (stereo not shown) [Example 49, (Decahydro-1H-carbazol-9(9aH)-yl)(8-hydroxyquinolin-7-yl)methanone] yielded an MIC [1] of 2.83 µg/mL (≈ 8.08 µM), an MIC [2] of 0.25 µg/mL (≈ 0.713 µM) and an MIC [3] of 0.71 µg/mL (≈ 2.03 µM). The MIC [4] was 2 µg/mL (≈ 5.71 µM), the MIC [5] was 1 µg/mL (≈ 2.85 µM) and the MIC [6] was 1.41 µg/mL (≈ 4.02 µM).

`O=C(c1ccc2cccnc2c1O)N1CCCc2c(Cl)ccc(O)c21` [Example 73, (5-Chloro-8-hydroxy-3,4-dihydroquinolin-1(2H)-yl)(8-hydroxyquinolin-7-yl)methanone] gave an MIC [1] of 1 µg/mL (≈ 2.82 µM), an MIC [2] of 0.125 µg/mL (≈ 0.352 µM) and an MIC [3] of 2 µg/mL (≈ 5.64 µM). It also gave an MIC [4] of 2 µg/mL (≈ 5.64 µM), an MIC [5] of 4 µg/mL (≈ 11.3 µM) and an MIC [6] of 2 µg/mL (≈ 5.64 µM).

With `O=C(c1ccc2cccnc2c1O)N1CCCc2cc(F)ccc21` [Example 72, (6-Fluoro-3,4-dihydroquinolin-1(2H)-yl)(8-hydroxyquinolin-7-yl)methanone] the MIC [1] was 2 µg/mL (≈ 6.2 µM), the MIC [2] was 0.25 µg/mL (≈ 0.776 µM) and the MIC [3] was 1 µg/mL (≈ 3.1 µM). It also gave an MIC [4] of 2 µg/mL (≈ 6.2 µM), an MIC [5] of 0.5 µg/mL (≈ 1.55 µM) and an MIC [6] of 2 µg/mL (≈ 6.2 µM).

`O=C(c1ccc2cccnc2c1O)N1CCC2CCCCC2C1` (stereo not shown) [Example 6, (8-Hydroxyquinolin-7-yl)(octahydroisoquinolin-2(1H)-yl)methanone] gave an MIC [1] of 2 µg/mL (≈ 6.44 µM), an MIC [2] of 0.5 µg/mL (≈ 1.61 µM) and an MIC [3] of 1.41 µg/mL (≈ 4.54 µM). It also gave an MIC [4] of 1.41 µg/mL (≈ 4.54 µM), an MIC [5] of 1.41 µg/mL (≈ 4.54 µM) and an MIC [6] of 1.41 µg/mL (≈ 4.54 µM).

In the case of `O=C(c1ccc2cccnc2c1O)N1CCCc2c(F)cc(F)cc21` [Example 70, (5,7-Difluoro-3,4-dihydroquinolin-1(2H)-yl)(8-hydroxyquinolin-7-yl)methanone], the MIC [1] is reported as 1 µg/mL (≈ 2.94 µM), the MIC [2] is reported as 0.25 µg/mL (≈ 0.735 µM) and the MIC [3] is reported as 1 µg/mL (≈ 2.94 µM). The MIC [4] was 2 µg/mL (≈ 5.88 µM), the MIC [5] was 1 µg/mL (≈ 2.94 µM) and the MIC [6] was 2 µg/mL (≈ 5.88 µM).

For `C[C@@H]1[C@H](O)[C@@H](C)/C=C/C=C/C=C/C=C/C=C/C=C/C=C/[C@H](O[C@@H]2O[C@H](C)[C@@H](O)[C@H](N)[C@@H]2O)C[C@@H]2O[C@](O)(C[C@@H](O)C[C@@H](O)[C@H](O)CC[C@@H](O)C[C@@H](O)CC(=O)O[C@H]1C)C[C@H](O)[C@H]2C(=O)O` [Amphotericin B], the rate of nephrotoxicity (invasive aspergillosis) is listed as 31%.

Compound `O=C(c1ccc2cccnc2c1O)N1CCOc2ccccc21` [Example 74, (2H-Benzo[b][1,4]oxazin-4(3H)-yl)(8-hydroxyquinolin-7-yl)methanone] has an MIC [1] of 2 µg/mL (≈ 6.53 µM), an MIC [2] of 0.18 µg/mL (≈ 0.588 µM) and an MIC [3] of 1 µg/mL (≈ 3.26 µM). It also gave an MIC [4] of 2 µg/mL (≈ 6.53 µM), an MIC [5] of 0.71 µg/mL (≈ 2.32 µM) and an MIC [6] of 1.41 µg/mL (≈ 4.6 µM).

For `O=C(c1ccc2cccnc2c1O)N1CCCc2c(F)cccc21` [Example 71, (5-Fluoro-3,4-dihydroquinolin-1(2H)-yl)(8-hydroxyquinolin-7-yl)methanone], the MIC [1] was 2.83 µg/mL (≈ 8.78 µM), the MIC [2] was 0.25 µg/mL (≈ 0.776 µM) and the MIC [3] was 1 µg/mL (≈ 3.1 µM). For the same compound, the MIC [4] was 2 µg/mL (≈ 6.2 µM), the MIC [5] was 0.71 µg/mL (≈ 2.2 µM) and the MIC [6] was 2 µg/mL (≈ 6.2 µM).

In the case of `CN(Cc1ccc(Cl)cc1)C(=O)c1ccc2cccnc2c1O` [Example 56, N-(4-Chlorobenzyl)-8-hydroxy-N-methylquinoline-7-carboxamide], the MIC [1] is reported as 2 µg/mL (≈ 6.12 µM), the MIC [2] is reported as 0.71 µg/mL (≈ 2.17 µM) and the MIC [3] is reported as 2 µg/mL (≈ 6.12 µM). The MIC [4] was 1.41 µg/mL (≈ 4.31 µM), the MIC [5] was 2 µg/mL (≈ 6.12 µM) and the MIC [6] was 1 µg/mL (≈ 3.06 µM).

Compound `O=C(c1ccc2cccnc2c1O)N1Cc2ccccc2C1` [Example 10, (8-Hydroxyquinolin-7-yl)(isoindolin-2-yl)methanone] has an MIC [1] of 2 µg/mL (≈ 6.89 µM), an MIC [2] of 0.25 µg/mL (≈ 0.861 µM) and an MIC [3] of 1 µg/mL (≈ 3.44 µM). It also gave an MIC [4] of 2 µg/mL (≈ 6.89 µM), an MIC [5] of 2 µg/mL (≈ 6.89 µM) and an MIC [6] of 2 µg/mL (≈ 6.89 µM).
